Source: PubChem BioAssay AID1259407 (Chemical Carcinogenesis Research Information System (CCRIS), 2018)
Active and inactive are the calls of the source. How the calls were made is not given here.

Tested on: CCRIS mutagenicity, Ames/micronucleus/aberration tests
Experiment: CCRIS mutagenicity studies
[1] = Test System: AMES SALMONELLA TYPHIMURIUM, Strain/Indicator: TA98, Metabolic Activation: NONE, Method: STANDARD PLATE
[2] = Test System: AMES SALMONELLA TYPHIMURIUM, Strain/Indicator: TA98, Metabolic Activation: RAT, LIVER, S-9, AROCLOR 1254, Method: STANDARD PLATE
[3] = Test System: AMES SALMONELLA TYPHIMURIUM, Strain/Indicator: TA100, Metabolic Activation: NONE, Method: STANDARD PLATE
[4] = Test System: AMES SALMONELLA TYPHIMURIUM, Strain/Indicator: TA100, Metabolic Activation: RAT, LIVER, S-9, AROCLOR 1254, Method: STANDARD PLATE

Measured: mutagenic call

Cc1ccccc1Cl
inactive: Test System: AMES SALMONELLA TYPHIMURIUM, Strain/Indicator: TA98, Metabolic Activation: HAMSTER, LIVER, S-9, AROCLOR 1254, Method: STANDARD PLATE inactive; negative | Test System: AMES SALMONELLA TYPHIMURIUM, Strain/Indicator: TA98, Metabolic Activation: NONE, Method: PREINCUBATION inactive; negative | [1] inactive; negative | Test System: AMES SALMONELLA TYPHIMURIUM, Strain/Indicator: TA98, Metabolic Activation: RAT LIVER S-9, PHENOBARBITAL AND BETA-NAPHTHOFLAVONE, Method: PREINCUBATION inactive; negative | [2] inactive; negative | Test System: AMES SALMONELLA TYPHIMURIUM, Strain/Indicator: TA100, Metabolic Activation: HAMSTER, LIVER, S-9, AROCLOR 1254, Method: STANDARD PLATE inactive; negative | Test System: AMES SALMONELLA TYPHIMURIUM, Strain/Indicator: TA100, Metabolic Activation: NONE, Method: PREINCUBATION inactive; negative | [3] inactive; negative | Test System: AMES SALMONELLA TYPHIMURIUM, Strain/Indicator: TA100, Metabolic Activation: RAT LIVER S-9, PHENOBARBITAL AND BETA-NAPHTHOFLAVONE, Method: PREINCUBATION inactive; negative | [4] inactive; negative | Test System: AMES SALMONELLA TYPHIMURIUM, Strain/Indicator: TA102, Metabolic Activation: NONE, Method: PREINCUBATION inactive; negative | Test System: AMES SALMONELLA TYPHIMURIUM, Strain/Indicator: TA102, Metabolic Activation: RAT LIVER S-9, PHENOBARBITAL AND BETA-NAPHTHOFLAVONE, Method: PREINCUBATION inactive; negative | Test System: AMES SALMONELLA TYPHIMURIUM, Strain/Indicator: TA104, Metabolic Activation: NONE, Method: PREINCUBATION inactive; negative | Test System: AMES SALMONELLA TYPHIMURIUM, Strain/Indicator: TA104, Metabolic Activation: RAT LIVER S-9, PHENOBARBITAL AND BETA-NAPHTHOFLAVONE, Method: PREINCUBATION inactive; negative | Test System: AMES SALMONELLA TYPHIMURIUM, Strain/Indicator: TA1535, Metabolic Activation: HAMSTER, LIVER, S-9, AROCLOR 1254, Method: STANDARD PLATE inactive; negative | Test System: AMES SALMONELLA TYPHIMURIUM, Strain/Indicator: TA1535, Metabolic Activation: NONE, Method: PREINCUBATION inactive; negative | Test System: AMES SALMONELLA TYPHIMURIUM, Strain/Indicator: TA1535, Metabolic Activation: NONE, Method: STANDARD PLATE inactive; negative | Test System: AMES SALMONELLA TYPHIMURIUM, Strain/Indicator: TA1535, Metabolic Activation: RAT LIVER S-9, PHENOBARBITAL AND BETA-NAPHTHOFLAVONE, Method: PREINCUBATION inactive; negative | Test System: AMES SALMONELLA TYPHIMURIUM, Strain/Indicator: TA1535, Metabolic Activation: RAT, LIVER, S-9, AROCLOR 1254, Method: STANDARD PLATE inactive; negative | Test System: AMES SALMONELLA TYPHIMURIUM, Strain/Indicator: TA1537, Metabolic Activation: HAMSTER, LIVER, S-9, AROCLOR 1254, Method: STANDARD PLATE inactive; negative | Test System: AMES SALMONELLA TYPHIMURIUM, Strain/Indicator: TA1537, Metabolic Activation: NONE, Method: PREINCUBATION inactive; negative | Test System: AMES SALMONELLA TYPHIMURIUM, Strain/Indicator: TA1537, Metabolic Activation: NONE, Method: STANDARD PLATE inactive; negative | Test System: AMES SALMONELLA TYPHIMURIUM, Strain/Indicator: TA1537, Metabolic Activation: RAT LIVER S-9, PHENOBARBITAL AND BETA-NAPHTHOFLAVONE, Method: PREINCUBATION inactive; negative | Test System: AMES SALMONELLA TYPHIMURIUM, Strain/Indicator: TA1537, Metabolic Activation: RAT, LIVER, S-9, AROCLOR 1254, Method: STANDARD PLATE inactive; negative | Test System: AMES SALMONELLA TYPHIMURIUM, Strain/Indicator: TA1538, Metabolic Activation: HAMSTER, LIVER, S-9, AROCLOR 1254, Method: STANDARD PLATE inactive; negative | Test System: AMES SALMONELLA TYPHIMURIUM, Strain/Indicator: TA1538, Metabolic Activation: NONE, Method: PREINCUBATION inactive; negative | Test System: AMES SALMONELLA TYPHIMURIUM, Strain/Indicator: TA1538, Metabolic Activation: NONE, Method: STANDARD PLATE inactive; negative | Test System: AMES SALMONELLA TYPHIMURIUM, Strain/Indicator: TA1538, Metabolic Activation: RAT LIVER S-9, PHENOBARBITAL AND BETA-NAPHTHOFLAVONE, Method: PREINCUBATION inactive; negative | Test System: AMES SALMONELLA TYPHIMURIUM, Strain/Indicator: TA1538, Metabolic Activation: RAT, LIVER, S-9, AROCLOR 1254, Method: STANDARD PLATE inactive; negative | Test System: E. COLI, Strain/Indicator: WP2UVRA/PKM101, Metabolic Activation: RAT LIVER S-9, PHENOBARBITAL AND BETA-NAPHTHOFLAVONE, Method: PREINCUBATION inactive; negative | Test System: E. COLI, Strain/Indicator: WP2UVRA, Metabolic Activation: NONE, Method: PREINCUBATION inactive; negative | Test System: E. COLI, Strain/Indicator: WP2UVRA, Metabolic Activation: RAT LIVER S-9, PHENOBARBITAL AND BETA-NAPHTHOFLAVONE, Method: PREINCUBATION inactive; negative | Test System: E.COLI, Strain/Indicator: WP2UVRA/PKM101, Metabolic Activation: NONE, Method: PREINCUBATION inactive; negative | Test System: Mouse lymphoma, Strain/Indicator: L5178Y (tk+/tk-), Metabolic Activation: None, Method: Suspension/plate inactive; negative | Test System: Mouse lymphoma, Strain/Indicator: L5178Y (tk+/tk-), Metabolic Activation: Rat, Liver, S-9, Aroclor 1254, Method: Suspension/plate inactive; negative

C[N+]1(CCNP(=S)(NCC[N+]2(C)Cc3c(ccc4c3OCO4)[C@@H]3[C@H]2c2cc4c(cc2C[C@@H]3O)OCO4)NCC[N+]2(C)Cc3c(ccc4c3OCO4)[C@@H]3[C@H]2c2cc4c(cc2C[C@@H]3O)OCO4)Cc2c(ccc3c2OCO3)[C@@H]2[C@H]1c1cc3c(cc1C[C@@H]2O)OCO3 (stereo partly specified)
inactive: [3] inactive; negative | [4] inactive; negative

CCOP(=S)(OCC)SCn1c(=O)oc2cc(Cl)ccc21
inactive: Test System: AMES SALMONELLA TYPHIMURIUM, Strain/Indicator: TA97A, Metabolic Activation: NONE, Method: STANDARD PLATE inactive; negative | Test System: AMES SALMONELLA TYPHIMURIUM, Strain/Indicator: TA97A, Metabolic Activation: RAT, CECAL CELL FREE EXTRACT, Method: STANDARD PLATE inactive; negative | Test System: AMES SALMONELLA TYPHIMURIUM, Strain/Indicator: TA97A, Metabolic Activation: RAT, LIVER, S-9, AROCLOR 1254, Method: STANDARD PLATE inactive; negative | [1] inactive; negative | Test System: AMES SALMONELLA TYPHIMURIUM, Strain/Indicator: TA98, Metabolic Activation: RAT, CECAL CELL FREE EXTRACT, Method: STANDARD PLATE inactive; negative | [2] inactive; negative | [3] inactive; negative | Test System: AMES SALMONELLA TYPHIMURIUM, Strain/Indicator: TA100, Metabolic Activation: RAT, CECAL CELL FREE EXTRACT, Method: STANDARD PLATE inactive; negative | [4] inactive; negative
